For this experiment, the system named is Plasmodium berghei. As to the kind of experiment: Luciferase/luciferin-expressing antifolate-resistant parasites were used to infect a culture of HepG2 cells that were pre-incubated with compounds. Infected hepatocytes emit light due to the luciferase reaction. Assay results are presented as the percent inhibition of light emission compared to control. […]. To be noted: sporozoite; for IC90: read-out: LUCIFERASE INFECTION ASSAY - IC90. It counts as functional.

The mark [1] stands for this setting: read-out: LUCIFERASE INFECTION ASSAY - IC50.

The values that follow come from ChEMBL document CHEMBL4483862, “Open-source discovery of chemical leads for next-generation chemoprotective antimalarials” (2018).

Some results are limits rather than exact numbers.

As usually defined, the IC50 is the concentration needed to halve the response being measured. Broadly, the IC90 is the concentration at which the effect reaches the 90% level. For `Cc1nn(S(=O)(=O)c2ccc(-c3cc(C(F)(F)F)n(C)n3)s2)c(C)c1Br`, the IC90 is more than 7.03 µM. In addition, under setting [1], the IC50 is more than 7.03 µM.
As to `O=C(CC1Sc2ccccc2NC1=O)NCCCn1ccc2ccccc21` (stereo unspecified), the 90% effect concentration (IC90) was found to be 3.47 µM. The IC50 (HEPG2TOX_HILL_SLOPE 0.0908, HEPG2TOX_R_SQUARED 0.322, PBLUC_HILL_SLOPE 2.29, PBLUC_R_SQUARED 0.881, read-out: LUCIFERASE INFECTION ASSAY - IC50) stood at 1.33 µM.
Regarding `CCOC(=O)c1sc(NC(=O)c2ccc([N+](=O)[O-])s2)nc1C`, the IC90 came to 3.85 µM. The IC50 (PBLUC_HILL_SLOPE 17.3, PBLUC_R_SQUARED 0.599, read-out: LUCIFERASE INFECTION ASSAY - IC50) is 3.39 µM.
For `COCC(=O)N1CCCC(C)(C(=O)NCc2cnc(C)cn2)C1` (stereo unspecified), the IC90 is more than 10.3 µM. In addition, the IC50 under setting [1] was more than 10.3 µM.
On to `O=C(Nc1cccc(Cl)c1)Nc1ccccc1SCc1ncc(C(F)(F)F)cc1Cl`, for which the IC90 is more than 6.99 µM. The IC50 under setting [1] was more than 6.99 µM.
As for `c1ccc(CN2CCC(Nc3ncnc4sccc34)CC2)cc1`, the IC90 is more than 10 µM. Moreover, the IC50 under setting [1] came out at 8.87 µM.
With `CN(C)c1cccc(-c2cnc3sc(NCCc4ccc(S(N)(=O)=O)cc4)nn23)c1`, the IC90 was more than 7.46 µM. Also, the IC50 (FFLUC_HILL_SLOPE 1.97, FFLUC_R_SQUARED 0.664, read-out: LUCIFERASE INFECTION ASSAY - IC50) was more than 7.46 µM.
Take `Fc1ccc(Nc2n[nH]c(=S)s2)cc1`: the IC90 was more than 14.5 µM. In addition, the IC50 under setting [1] is more than 14.5 µM.
For the compound `CC(C)(c1ccc(O)cc1)c1ccc(Cl)cc1`, the IC90 was more than 10 µM. Moreover, the IC50 under setting [1] was more than 10 µM.
On to `CC(C)c1ccc(C(=O)N2CCC(CCCC3CCN(C(=O)c4ccc(C(C)C)cc4)CC3)CC2)cc1`, for which the IC90 was more than 10 µM. In addition, the IC50 (HEPG2TOX_HILL_SLOPE 8.83, HEPG2TOX_R_SQUARED 0.537, read-out: LUCIFERASE INFECTION ASSAY - IC50) is more than 10 µM.
As to `CC(C)c1ccc(-n2c(SCc3ccc(Cl)cc3)nnc2-c2ccc(C(C)(C)C)cc2)cc1`, the IC90 is more than 6.93 µM. Further, under setting [1], the half-inhibitory concentration (IC50) was more than 6.93 µM.
As for `CC(C(=O)Nc1cccc(S(=O)(=O)N2CCOCC2)c1)N(C)Cc1cccc(Cl)c1Cl` (stereo unspecified), the IC90 is more than 10 µM. Besides, under setting [1], the IC50 was more than 10 µM.
As for `COc1ccc(CNc2nc(C)nc3scc(-c4cccs4)c23)cn1`, the IC90 was more than 10 µM. Also, the IC50 (HEPG2TOX_HILL_SLOPE 2.96, HEPG2TOX_R_SQUARED 0.967, read-out: LUCIFERASE INFECTION ASSAY - IC50) was more than 10 µM.
Turning to `O=[N+]([O-])c1ccc(Sc2nc(-c3ccccc3)c(-c3ccccc3)[nH]2)cc1`, the IC90 is more than 8.84 µM. Where the note is “FFLUC_HILL_SLOPE 23.8, FFLUC_R_SQUARED 0.615, read-out: LUCIFERASE INFECTION ASSAY - IC50”, the IC50 is more than 8.84 µM.
On to `COc1ccc(-c2csc3ncnc(NC4CCN(S(C)(=O)=O)CC4)c23)cc1`, for which the IC90 is more than 10 µM. Moreover, under “FFLUC_HILL_SLOPE 15, FFLUC_R_SQUARED 0.503, HEPG2TOX_HILL_SLOPE 1.74, HEPG2TOX_R_SQUARED 0.848, read-out: LUCIFERASE INFECTION ASSAY - IC50”, the IC50 is more than 10 µM.
Consider `CC(C)(C)c1ccc(C(=O)NNC(=O)c2ccc(CSc3ccc(C(F)(F)F)cn3)o2)cc1`, for which the concentration for an effect of 90% (IC90) is more than 6.91 µM. Further, the IC50 under setting [1] was more than 6.91 µM.
For `O=C(Cn1ncc(Br)c(Br)c1=O)C12CC3CC(CC(C3)C1)C2`, the IC90 was more than 10 µM. Further, where the note is “HEPG2TOX_HILL_SLOPE 11, HEPG2TOX_R_SQUARED 0.947, PBLUC_HILL_SLOPE 1.04, PBLUC_R_SQUARED 0.291, read-out: LUCIFERASE INFECTION ASSAY - IC50”, the half-inhibitory concentration (IC50) came out at 2.75 µM.
In the case of `O=C(Nc1ccc(Cl)cc1)Nc1ccc2c(c1)no[n+]2[O-]`, the IC90 amounted to 8.03 µM. For the same compound, the IC50 (HEPG2TOX_HILL_SLOPE 58.7, HEPG2TOX_R_SQUARED 0.822, PBLUC_HILL_SLOPE 3.98, PBLUC_R_SQUARED 0.47, read-out: LUCIFERASE INFECTION ASSAY - IC50) amounted to 4.62 µM.
For `O=C(Nc1ccc(OC(F)(F)F)cc1)Nc1ccc2nc(-c3ccsc3)nn2c1`, the IC90 is 9.37 µM. Further, the IC50 (FFLUC_HILL_SLOPE 13.4, FFLUC_R_SQUARED 0.266, PBLUC_HILL_SLOPE 2.61, PBLUC_R_SQUARED 0.893, read-out: LUCIFERASE INFECTION ASSAY - IC50) is 4.04 µM.
Consider `CCc1c(C)[nH]c2cc(-c3ccc(OC)cc3)nn2c1=O`, for which the IC90 was determined as 3.98 µM. In addition, the IC50 (PBLUC_HILL_SLOPE 29.9, PBLUC_R_SQUARED 0.167, read-out: LUCIFERASE INFECTION ASSAY - IC50) was determined as 3.7 µM.
Regarding `Clc1cccc(-c2ccnc3n[nH]c(-c4cccnc4)c23)c1`, the IC90 was found to be 4.14 µM. The IC50 (HEPG2TOX_HILL_SLOPE 2.64, HEPG2TOX_R_SQUARED 0.942, PBLUC_HILL_SLOPE 10.9, PBLUC_R_SQUARED 0.513, read-out: LUCIFERASE INFECTION ASSAY - IC50) turned out to be 3.39 µM.
On to `CN1CCN(c2ccc(-c3cn4c(-c5ccc6c(ccn6C)c5)cnc4cn3)cn2)CC1`, for which the IC90 is more than 7.79 µM. Also, the IC50 (HEPG2TOX_HILL_SLOPE 8.77, HEPG2TOX_R_SQUARED 0.447, PBLUC_HILL_SLOPE 3.78, PBLUC_R_SQUARED 0.492, read-out: LUCIFERASE INFECTION ASSAY - IC50) was 4.51 µM.
For `Cc1nnsc1C(=O)Nc1cc(C(F)(F)F)cc(C(F)(F)F)c1`, the IC90 was determined as 1.4 µM. Under “HEPG2TOX_HILL_SLOPE 1.48, HEPG2TOX_R_SQUARED 0.897, PBLUC_HILL_SLOPE 8.57, PBLUC_R_SQUARED 0.681, read-out: LUCIFERASE INFECTION ASSAY - IC50”, the IC50 is 1.08 µM.
For `Cn1ccc2cc(-c3cnc4cnc(-c5ccc(F)c(Cl)c5)cn34)ccc21`, the IC90 was found to be 3.55 µM. Moreover, the IC50 (HEPG2TOX_HILL_SLOPE 3.52, HEPG2TOX_R_SQUARED 0.929, PBLUC_HILL_SLOPE 14.4, PBLUC_R_SQUARED 0.566, read-out: LUCIFERASE INFECTION ASSAY - IC50) is 3.05 µM.
For the compound `CNc1nc2cnc(Nc3ccc(OC(F)(F)F)cc3)cc2n1Cc1ccccc1`, the IC90 stood at 5.21 µM. For the same compound, the IC50 (HEPG2TOX_HILL_SLOPE 3.1, HEPG2TOX_R_SQUARED 0.978, PBLUC_HILL_SLOPE 7.5, PBLUC_R_SQUARED 0.303, read-out: LUCIFERASE INFECTION ASSAY - IC50) came out at 3.88 µM.
Regarding `O=[N+]([O-])c1cnc(Sc2ccc(C(F)(F)F)cn2)s1`, the IC90 is 10.5 µM. The concentration for half-maximal inhibition (IC50) (FFLUC_HILL_SLOPE 78.7, FFLUC_R_SQUARED 0.547, HEPG2TOX_HILL_SLOPE 11.7, HEPG2TOX_R_SQUARED 0.958, PBLUC_HILL_SLOPE 15.1, PBLUC_R_SQUARED 0.404, read-out: LUCIFERASE INFECTION ASSAY - IC50) stood at 9.04 µM.
`CN(C)c1ccc(/C=C(\C#N)c2nc3ccccc3[nH]2)cc1`: the IC90 was more than 11.4 µM. Further, under setting [1], the IC50 was more than 11.4 µM.
Consider `CN1CCCN(C(=O)CCNC(=O)/C=C/c2ccco2)c2nc3ccccc3nc21`, for which the IC90 was more than 10 µM. Under “PBLUC_HILL_SLOPE 1.1, PBLUC_R_SQUARED 0.699, read-out: LUCIFERASE INFECTION ASSAY - IC50”, the IC50 was 1.78 µM.
As to `CCOC(=O)c1c(S(=O)(=O)Nc2ccccc2Cl)c(-c2ccccc2)n(-c2ccccc2)c1C`, the IC90 was more than 6.67 µM. In addition, under setting [1], the IC50 was more than 6.67 µM.
Regarding `FC(F)(F)c1cnc(/C=N/Nc2ncc(C(F)(F)F)cc2Cl)c(Cl)c1`, the IC90 amounted to 3.13 µM. Further, the IC50 under setting [1] turned out to be 2.69 µM.
In the same order, the values of `CN(C)c1ccc(/C=C2\CCn3c2nc2scc(-c4ccccc4)c2c3=O)cc1[N+](=O)[O-]` are more than 10 µM and more than 10 µM.
With `Cc1cc(C(=O)ONC(=N)c2ccccc2)nn1C(C)(C)C`, the IC90 is 1.23 µM. Moreover, the IC50 (FFLUC_HILL_SLOPE 2.36, FFLUC_R_SQUARED 0.364, PBLUC_HILL_SLOPE 1.16, PBLUC_R_SQUARED 0.78, read-out: LUCIFERASE INFECTION ASSAY - IC50) was 0.186 µM.
Turning to `CCN1C(=O)N(C2Cc3ccccc3C2)C(=O)C12CCN(Cc1ccc(-c3ccco3)cc1)CC2`, the IC90 was more than 7.03 µM. Besides, for the setting “PBLUC_HILL_SLOPE 11.2, PBLUC_R_SQUARED 0.677, read-out: LUCIFERASE INFECTION ASSAY - IC50”, the IC50 came to 6.46 µM.
Regarding `CCOC(=O)c1[nH]c(C)c(C(=O)/C=C/c2c(C)nn(-c3ccc(F)cc3)c2Cl)c1C`, the IC90 was determined as 0.643 µM. Also, the IC50 (HEPG2TOX_HILL_SLOPE 1.33, HEPG2TOX_R_SQUARED 0.905, PBLUC_HILL_SLOPE 0.748, PBLUC_R_SQUARED 0.781, read-out: LUCIFERASE INFECTION ASSAY - IC50) worked out at 0.0341 µM.
Take `O=C(NC1CCN(c2nccc(C(F)(F)F)n2)CC1)c1ccco1`: the IC90 is more than 9.7 µM. Besides, for the setting “PBLUC_HILL_SLOPE 0.897, PBLUC_R_SQUARED 0.83, read-out: LUCIFERASE INFECTION ASSAY - IC50”, the IC50 was determined as 2.6 µM.
As for `CC1(C(=O)Nc2ccncc2)CCN1Cc1ccc2ccccc2c1` (stereo unspecified), the IC90 was 7.13 µM. Also, under “HEPG2TOX_HILL_SLOPE 0.704, HEPG2TOX_R_SQUARED 0.958, PBLUC_HILL_SLOPE 1.6, PBLUC_R_SQUARED 0.488, read-out: LUCIFERASE INFECTION ASSAY - IC50”, the IC50 was 1.8 µM.
As to `CC(C)Cc1ccc(CN2CCc3c(c(C(=O)N(C)Cc4cscn4)nn3CC3CC3)C2)cc1`, the IC90 is more than 6.91 µM. The IC50 (PBLUC_HILL_SLOPE 8.64, PBLUC_R_SQUARED 0.119, read-out: LUCIFERASE INFECTION ASSAY - IC50) was found to be 5.84 µM.
For `CCNC(=O)C1(C)CCCN1C(=O)c1ccc(OC)cc1` (stereo unspecified), the IC90 was more than 11.4 µM. Besides, the IC50 under setting [1] was more than 11.4 µM.
